Source: US20230098995A1 (SYNGENTA CROP PROTECTION AG, priority 2020, published 2023)

Test system: Corynespora cassiicola
Assay: Corynespora cassiicola liquid culture growth inhibition (microtiter plate, PDB)
Format: cell-based
Details: photometric at 620 nm after 3-4 days at 24 C, compared to untreated control
Description: Conidia of the fungus from cryogenic storage were directly mixed into nutrient broth (PDB potato dextrose broth). A DMSO solution of the test compounds was placed into a microtiter plate (96-well format) and the nutrient broth containing the fungal spores was added to it. The test plates were incubated at 24 C and the inhibition of growth (% control of Corynespora cassiicola) was determined photometrically after 3-4 days at 620 nm. The activity of a compound is derived by comparing the inhibition of growth in the treated test solution to the growth in the untreated check. The concentration of the compounds was 6.7, 2.2, 0.74, 0.25, 0.082 and 0.027 ppm.

SMILES	inhibition at 6.7 ppm
CC(C)CC(C)(Cc1ccccc1)NC(=O)c1cnc2c(F)cccc2c1 (centres unmarked) [Compound 2]	≥ 70%
C=C(Cl)CC(C)(Cc1ccccc1)NC(=O)c1cnc2c(F)cccc2c1 (centres unmarked) [Compound 4]	≥ 70%
CC(C)CC(C)(Cc1cccc(F)c1)NC(=O)c1cnc2c(F)cccc2c1 (centres unmarked) [Compound 6]	≥ 70%
CC(C)C[C@](C)(Cc1ccccc1)NC(=O)c1cnc2c(F)cccc2c1 [Compound 9]	≥ 70%
C[C@](Cc1ccccc1)(CC(F)(F)F)NC(=O)c1cnc2c(F)cccc2c1 [Compound 11]	≥ 70%
C[C@@](Cc1ccccc1)(CC(F)(F)F)NC(=O)c1cnc2c(F)cccc2c1 [Compound 12]	≥ 70%
C=C(Cl)C[C@](C)(Cc1ccccc1)NC(=O)c1cnc2c(F)cccc2c1 [Compound 13]	≥ 70%
CC(C)C[C@@](C)(Cc1ccccc1)NC(=O)c1cnc2c(F)c(F)ccc2c1 [Compound 16]	≥ 70%
